Measurements reported in patent US9428472B2, “Methods of treating bacterial infections with 1,2-benzisothiazolinone and isoindolinone derivatives” (GEORGETOWN UNIVERSITY, priority 2011, dated 2016).
Converted amounts (≈) assume the structure as drawn. Like-named read-outs stand apart in the source and are kept apart here.

Assays:
Klebsiella oxytoca = experiment: Disc-diffusion method (disc inhibition testing); assay type: cell-based; conditions: Conc. 10/25/50 μg
Protocol: (§1) An inoculum of the tested organism was made from an 18-24 h agar plate and was grown overnight to 0.5 McFarland standard. This suspension was then spread on a fresh Mueller-Hinton plate in the following manner: Optimally, within 15 minutes after adjusting the turbidity of the inoculum suspension, a sterile cotton swab was dipped the suspension. The swab was rotated several times and pressed firmly on the inside wall of the tube to remove excess inoculum. The dried surface of the Mueller-Hinton agar plate was then inoculated by streaking the swab over the entire sterile agar surface. […] A control disc with the same DMSO % as the test discs were also applied to the plate. The plates were inverted after 15 minutes and were placed in an incubator set to 35° C. After 16-18 h, the plates were examined. The circular zones of inhibition were evaluated by measuring the diameter of the circular margin with no obvious visible growth. The inhibition diameters of standardized drugs against the tested organism were also determined simultaneously and are compared to those mentioned in CLSI M02-A10.

Aeromonas sp = experiment: Disc-diffusion method (disc inhibition testing); assay type: cell-based; conditions: Conc. 10/25/50 μg
Protocol: as §1

Klebsiella pnemonia 1705 = experiment: Disc-diffusion method (disc inhibition testing); assay type: cell-based; conditions: Conc. 10/25/50 μg
Protocol: as §1

Shigella sp = experiment: Disc-diffusion method (disc inhibition testing); assay type: cell-based; conditions: Conc. 10/25/50 μg
Protocol: as §1

Streptococcus pneumoniae = experiment: Disc-diffusion method (disc inhibition testing); assay type: cell-based; conditions: Conc. 10/25/50 μg
Protocol: as §1

Pseudomonas aeroginosa = experiment: Disc-diffusion method (disc inhibition testing); assay type: cell-based; conditions: Conc. 10/25/50 μg
Protocol: as §1

Proteus sp 35651 = experiment: Disc-diffusion method (disc inhibition testing); assay type: cell-based; conditions: Conc. 10/25/50 μg
Protocol: as §1

E. Coli 25922 = experiment: Disc-diffusion method (disc inhibition testing); assay type: cell-based; conditions: Conc. 10/25/50 μg
Protocol: as §1

[1] = tested on: Gram-positive bacterial organisms; experiment: Screening for antibacterial compounds (disc diffusion method, CSLI M02-A10); assay type: cell-based
Protocol: (§2) An inoculum of the tested organism was made from an 18-24 h agar plate and was grown overnight to 0.5 McFarland standard. This suspension was then spread on a fresh Mueller-Hinton plate in the following manner: Optimally, within 15 minutes after adjusting the turbidity of the inoculum suspension, a sterile cotton swab was dipped the suspension. The swab was rotated several times and pressed firmly on the inside wall of the tube to remove excess inoculum. The dried surface of the Mueller-Hinton agar plate was then inoculated by streaking the swab over the entire sterile agar surface. Discs of sterile filter paper were inoculated with standard amounts of compounds (5, 10 and 25 microgram) and were dried before application on to the streaked plate. A control disc with the same DMSO % as the test discs were also applied to the plate. The plates were inverted after 15 minutes and were placed in an incubator set to 35° C. After 16-18 h, the plates were examined. The circular zones of inhibition were evaluated by measuring the diameter of the circular margin with no obvious visible growth. The inhibition diameters of standardized drugs against the tested organism were also determined simultaneously and are compared to those mentioned in CLSI M02-A10.

[2] = tested on: Staphylococcus saprophyticus, Staphylococcus aureus, Micrococcus sp., Enterococcus fecalis and Group A Streptococcus; experiment: Broth microdilution method, MIC-50 over the tested organisms; assay type: cell-based
Protocol: (§3) The in vitro toxicity of these compounds was determined by the neutral red (both compounds I-1 and I-2) and MTT (3-(4,5-Dimethylthiazol-2-yl)-2,5-diphenyltetrazolium bromide) assay (compound I-1) in human hepatic cell lines Huh7 and HepG2.
96 well plates were used to determine the MIC-50 endpoints for most fastidious organisms. The tested compounds were diluted in RPMI to 50 microgram/ml and 0.1 ml was added to the first well. Two-fold dilutions were made in subsequent wells in RPMI to get a range of concentrations from 0.1-50 μg/ml. The volume of diluted compound in each well was 100 microliter. Bacteria were grown in Mueller-Hinton Broth from a single colony from a fresh plate of the tested organism. The broth was grown overnight to 0.5 McFarland standard (10^8 cells) and further diluted in RPMI to get a final inoculum concentration of 5×10^5 CFU/mL. 15 minutes after the inoculum had been standardized as described above, 5 μl of this suspension was inoculated to each well containing 0.1 ml of the tested compound. This plate was then kept at 35° C. for 16-20 h in an ambient air incubator. […] The concentration of inoculum suspension was confirmed by replating on to agar plates. […] The endpoints of standardized drugs are also determined simultaneously and were compared to those mentioned in CLSI M07-08.

Huh7 = experiment: In vitro toxicity, neutral red cell viability and MTT assays; assay type: cell-based, human
Protocol: as §3
(§4) The neutral red cell viability assay and the MTT assays were conducted with the active compounds at defined concentrations in human hepatoma cell lines, Huh7 and HepG2, as described by Repetto et al (Repetto G, Peso A. D. & Zurita J. L., Neutral red uptake assay for the estimation of cell viability/cytotoxicity, Nature Protocols 3, 1125-1131 (2008)) and Mosmann et al (Mosmann T., Rapid colorimetric assay for cellular growth and survival: application to proliferation and cytotoxicity assays, Journal of Immunological Methods 65 (1-2): 55-63, (December 1983)) respectively. The cell cytotoxicity (CC-50) concentrations were calculated for the HepG2 cell line.

HepG2 = experiment: as above; assay type: cell-based, human
Protocol: as §3, §4

[3] = tested on: Staphylococcus aureus 29213; experiment: Disc-diffusion method (disc inhibition testing); assay type: cell-based; conditions: read-out: Zone diameter
Protocol: as §2

Group A Streptococci = experiment: Disc-diffusion method (disc inhibition testing); assay type: cell-based; conditions: read-out: Zone diameter
Protocol: as §2

Micrococcus sp = experiment: Disc-diffusion method (disc inhibition testing); assay type: cell-based; conditions: read-out: Zone diameter
Protocol: as §2

[4] = tested on: Staphylocccus saprophyticus; experiment: Disc-diffusion method (disc inhibition testing); assay type: cell-based; conditions: read-out: Zone diameter
Protocol: as §2

[5] = tested on: Staphylococcus aureus 43300 (MRSA); experiment: Disc-diffusion method (disc inhibition testing); assay type: cell-based
Protocol: as §2

[6] = tested on: Enterococcus fecalis 29212; experiment: Disc-diffusion method (disc inhibition testing); assay type: cell-based; conditions: read-out: Zone diameter
Protocol: as §2

[7] = tested on: Staphylococcus aureus 25923; experiment: Disc-diffusion method (disc inhibition testing); assay type: cell-based; conditions: read-out: Zone diameter
Protocol: as §2

[8] = tested on: Enterococcus fecalis 51299 (VRE); experiment: Disc-diffusion method (disc inhibition testing); assay type: cell-based
Protocol: as §2

[9] = neutral red (I-1, I-2) and MTT (I-1)

SMILES: O=C(Cn1sc2ccccc2c1=O)Nc1ccccc1Oc1ccccc1 [Compound I-2]
- Zone diameter (Klebsiella oxytoca): NOT ACTIVE
- Zone diameter (Aeromonas sp): NOT ACTIVE
- Zone diameter (Klebsiella pnemonia 1705): NOT ACTIVE
- Zone diameter (Shigella sp): NOT ACTIVE
- Zone diameter (Streptococcus pneumoniae): NOT ACTIVE
- Zone diameter (Pseudomonas aeroginosa): NOT ACTIVE
- Zone diameter (Proteus sp 35651): NOT ACTIVE
- Zone diameter (E. Coli 25922): NOT ACTIVE
- activity against Staphylococcus saprophyticus, Staphylococcus aureus, Micrococcus sp., Enterococcus fecalis and Group A Streptococcus [1]: showed activity
- antibiotic activity against Gram-positive bacterial organisms ([1]; disc diffusion screening): antibiotic activity
- MIC50 ([2]; range over the five named organisms, read-out: MIC-50 concentrations): 1 to 15 µg/mL (≈ 2.66 to 39.8 µM)
- MIC50 ([2]; range over the tested gram positive pathogens, read-out: MIC-50 values): 1 to 15 µg/mL (≈ 2.66 to 39.8 µM)
- concentration up to which no toxicity was shown (Huh7): ≥ 100 microgram/ml
- in vitro toxicity (Huh7; [9]): Minimal in vitro toxicity
- concentration up to which no toxicity was shown (HepG2): ≥ 100 microgram/ml
- in vitro toxicity (HepG2; [9]): Minimal in vitro toxicity
- zone of inhibition at 10 µg/disc ([3]; Conc. 10 μg): 16 mm
- zone of inhibition at 25 µg/disc ([3]; Conc. 25 μg): 18 mm
- zone of inhibition at 50 µg/disc ([3]; Conc. 50 μg): 22 mm
- zone of inhibition at 10 µg/disc (Group A Streptococci; Conc. 10 μg): 20 mm
- zone of inhibition at 25 µg/disc (Group A Streptococci; Conc. 25 μg): 24 mm
- zone of inhibition at 50 µg/disc (Group A Streptococci; Conc. 50 μg): 27 mm
- zone of inhibition at 10 µg/disc (Micrococcus sp; Conc. 10 μg): 27 mm
- zone of inhibition at 25 µg/disc (Micrococcus sp; Conc. 25 μg): 28 mm
- zone of inhibition at 50 µg/disc (Micrococcus sp; Conc. 50 μg): 29 mm
- zone of inhibition at 10 µg/disc ([4]; Conc. 10 μg): 22 mm
- zone of inhibition at 25 µg/disc ([4]; Conc. 25 μg): 24 mm
- zone of inhibition at 50 µg/disc ([4]; Conc. 50 μg): 25 mm
- zone of inhibition at 10 µg/disc ([5]; Staphylococcus aureus, MRSA, Conc. 10 μg, read-out: Zone diameter): 19 mm
- zone of inhibition at 25 µg/disc ([5]; Staphylococcus aureus, MRSA, Conc. 25 μg, read-out: Zone diameter): 19 mm
- zone of inhibition at 50 µg/disc ([5]; Staphylococcus aureus, MRSA, Conc. 50 μg, read-out: Zone diameter): 23 mm
- activity against Staphylococcus aureus ATCC 43300 (MRSA) ([5]; method not named): active
- zone of inhibition at 10 µg/disc ([6]; Conc. 10 μg): 14 mm
- zone of inhibition at 25 µg/disc ([6]; Conc. 25 μg): 16 mm
- zone of inhibition at 50 µg/disc ([6]; Conc. 50 μg): 18 mm
- zone of inhibition at 10 µg/disc ([7]; Conc. 10 μg): 18 mm
- zone of inhibition at 25 µg/disc ([7]; Conc. 25 μg): 21 mm
- zone of inhibition at 50 µg/disc ([7]; Conc. 50 μg): 23 mm
- zone of inhibition at 10 µg/disc ([8]; Enterococcus, VRE, Conc. 10 μg, read-out: Zone diameter): 17 mm
- zone of inhibition at 25 µg/disc ([8]; Enterococcus, VRE, Conc. 25 μg, read-out: Zone diameter): 22 mm
- zone of inhibition at 50 µg/disc ([8]; Enterococcus, VRE, Conc. 50 μg, read-out: Zone diameter): 24 mm
- activity against Enterococcus fecalis ATCC 51299 (VRE) ([8]; method not named): active
